Test results: patent US20100112037A1, “S1P RECEPTOR AGONISTS FOR THE TREATMENT OF CEREBRAL MALARIA” (priority 2008, published 2010)

Columns and labels:
P. berghei ANKA = assay: Cerebral malaria model (survival of infected mice); type: in vivo, C56B1/6 mice; settings: FTY720 0.3 mg/kg/day by gavage, administered one day prior to malaria infection; vs control; two independent experiments, Log-Rank Test, p=0.0002; FIG. 1
Protocol: A well characterized and widely used animal model of CM was used to test the efficacy of compounds. See, e.g., Golenser, supra, at 585. In each experiment, two groups of C56B1/6 mice were infected with 1 million parasites (P. berghei ANKA) i.p. in 500 μl of media. The first group was the control group, and the second was treated daily by gavage with FTY720 (0.3 mg/kg/day).
After at least two doses of the drug had been administered, tail vein blood was taken from the mice, and flow cytometry analysis was used to assess the levels of B and T cells, using antibodies to CD3, CD4, CD8 and CD19. The animals were monitored daily for body weight and parasitaemia, and twice daily for survival.

[1] = Topical and transdermal administration: blood cell counts (CBC); type: in vivo, F1 hybrid mice; settings: topical (200 μL of 1 mg/mL solution) and transdermal patch; measured six hours after administration; FIG. 2
Protocol: Drug-in-adhesive transdermal patches containing FTY720 were made by dissolving FTY720 in adhesive (Duro-Tak 87-2196, National Starch & Chemical Co.) at a ratio of 1 part compound to 10 parts adhesive (weight:weight). Adhesive containing FTY720 was layered onto a release liner (Scotchpak 1022 PET Film, 3M Corporation) using a Bird applicator with a 50 to 200 micron gap. Organic solvents were removed from the film by baking at 100° C. for 15 minutes. The dried adhesive was then laminated onto a backing membrane (CoTran 9720 polyethylene film, 3M Corporation).
Topical and transdermal dosage forms of FTY720 were administered to F1 hybrid mice (n=5 mice per group). The blood of the mice was collected at various time points for CBC and PK analysis.
Topical dosing of FTY720 was achieved using 200 μL of a 1 mg/mL solution composed of 70% ethanol, 29.9% water, and 0.1% DMSO.
Transdermal dosing was achieved using patches made as described above. Patches were cut from the laminate and applied to bare skin above the front shoulder of the mice. Dosage was controlled by adjusting the thickness of the compound/adhesive applied to the release liner and number or size of patches. Fur was trimmed from the site of application and then shaved to expose bare skin. To improve adhesion, the skin was further prepped by swabbing with 70% ethanol and then allowed to air dry prior to placing the patch.

CCCCCCCCc1ccc(CCC(N)(CO)CO)cc1 [FTY720, 2-amino-2-[2-(4-octylphenyl)ethyl]propane-1,3-diol]
survival (P. berghei ANKA): significant survival advantage
lymphocyte count [1]: affected
neutrophil count [1]: affected
white blood cell count [1]: affected
